These are literature values, as cited in the PKSmart pharmacokinetics tables (Seal et al. 2025).

For orientation: MRT means the average time that molecules of a dose stay in the body. As a reminder, the Vd is the apparent volume that relates the amount in the body to the concentration in plasma or blood. As usually defined, the clearance is a measure of how efficiently the substance is removed, as volume per time. What is called half-life is the time needed for the level to fall by half in the phase considered. In general, fraction unbound refers to free concentration divided by total concentration.

The data set is described as follows: Lombardo, Berellini, Obach 2018, Drug Metab Dispos 46:1466, doi 10.1124/dmd.118.082966. Particulars: human; for MRT / Vd / clearance / half-life: in vivo, iv; for fraction unbound: plasma.

In the case of `CC(=O)Nc1cccc(-n2c(=O)n(C3CC3)c(=O)c3c(Nc4ccc(I)cc4F)n(C)c(=O)c(C)c32)c1`, the MRT was 304 h, the Vd is 13.9 L/kg, the clearance is 0.8 mL/min/kg and the half-life was 229 h.
Regarding `O=C1NCC2(CCN(CCc3ccccc3)CC2)O1`, the MRT was 19 h, the Vd is 3 L/kg, the clearance is 2.6 mL/min/kg and the half-life was 14 h.
For `C[C@@H](NCCCc1cccc(C(F)(F)F)c1)c1cccc2ccccc12`, the mean residence time MRT is 16 h, the Vd was 17.6 L/kg, the clearance was 18.3 mL/min/kg and the half-life is 19.9 h. Also, the fraction unbound is 0.05.
On to `CCCCNC(=N)NC(=N)N`, for which the MRT is 4.66 h, the Vd was 1.84 L/kg, the clearance was 6.58 mL/min/kg and the half-life was 4.62 h.
`CCNCC(O)c1cccc(O)c1` (stereo not drawn): the MRT is 2.5 h, the Vd was 2.1 L/kg, the clearance is 14 mL/min/kg and the half-life was 2.2 h.
Consider `O=C(/C=C/c1ccc(O)c(O)c1)O[C@@H]1C[C@](OC(=O)/C=C/c2ccc(O)c(O)c2)(C(=O)O)C[C@@H](O)[C@H]1O`, for which the mean residence time MRT is 1.5 h, the Vd was 0.79 L/kg, the clearance is 8.7 mL/min/kg and the half-life is 1.37 h.
For the molecule `NC(=O)C1CC[C@@H]2CN1C(=O)N2OS(=O)(=O)O` (stereo partly drawn), the MRT was 1.4 h, the Vd is 0.24 L/kg, the clearance was 2.76 mL/min/kg and the half-life was 1.7 h. The fraction unbound is 0.93.
As to `C/C(=C\[C@H](C(C)C)N(C)C(=O)C(NC(=O)C1CCCCN1C(C)C)C(C)(C)C)C(=O)O` (stereo partly drawn), the MRT is 21.5 h, the Vd was 1.26 L/kg, the clearance was 0.97 mL/min/kg and the half-life is 17.5 h.
With `CO[C@H]1[C@@H](O)[C@H](N)[C@@H](O[C@H]2O[C@H]([C@H](C)N)CC[C@H]2N)[C@H](O)[C@H]1N(C)C(=O)CN`, the MRT was 2.8 h, the Vd is 0.23 L/kg, the clearance was 1.37 mL/min/kg and the half-life was 2 h.
Take `CN(C)CCCN1c2ccccc2CCc2cc(O)ccc21`: the MRT is 12 h, the Vd is 6.6 L/kg, the clearance is 9.2 mL/min/kg and the half-life was 10 h. The fraction unbound is 0.36.
For the molecule `O=C1CCC[C@@H]2[C@H]3CCC[N@+]4(O)CCC[C@@H](CN12)[C@@H]34`, the mean residence time (MRT) was 1.33 h, the Vd was 0.61 L/kg, the clearance is 7.66 mL/min/kg and the half-life was 1.69 h.
As to `COCCCN1CCC(NC(=O)c2cc(Cl)c(N)c3c2OCC3)CC1`, the mean residence time (MRT) is 32.2 h, the Vd is 8.73 L/kg, the clearance is 4.55 mL/min/kg and the half-life was 22.5 h. Besides, the fraction unbound is 0.7.
As to `C[C@@H](N)[C@H]1CC[C@@H](N)[C@@H](O[C@@H]2[C@@H](N)[C@@H](O)[C@@H](O)[C@@H](N(C)C(=O)CN)[C@H]2O)O1`, the MRT was 3.3 h, the Vd is 0.27 L/kg, the clearance was 1.37 mL/min/kg and the half-life is 2.9 h.
As to `NCCCCC(NC1CCc2ccccc2N(CC(=O)O)C1=O)C(=O)O` (stereo not drawn), the MRT is 29.3 h, the Vd was 1.98 L/kg and the clearance was 1.23 mL/min/kg.
For `OC(c1ccccc1)(c1ccccc1)C12CC[N+](CCOCc3ccccc3)(CC1)CC2`, the MRT is 0.57 h, the Vd was 1.23 L/kg, the clearance is 36 mL/min/kg and the half-life is 19 h. Besides, the fraction unbound is 0.11.
In the case of `CCCCc1nc(Cl)c(CO)n1Cc1ccc(-c2ccccc2-c2nnn[nH]2)cc1`, the MRT is 0.75 h, the Vd was 0.37 L/kg, the clearance is 8.2 mL/min/kg and the half-life is 1.8 h.
Regarding `C=C1C=CC=C(C)[C@H](O)[C@@H](C)[C@@H](O)[C@@H](C)[C@H](OC(C)=O)[C@H](C)[C@@H](OC)/C=C/O[C@@]2(C)Oc3c(C)c(O)c4c(O)c(c5c(c4c3C2=O)NC2(CCN(CC(C)C)CC2)N5)NC1=O`, the MRT was 65 h, the Vd is 9.3 L/kg, the clearance is 2.4 mL/min/kg and the half-life was 37 h.
For the molecule `Cc1nc(C#Cc2ccnc(Cl)c2)c(C)n1-c1ccc(F)cc1`, the MRT is 57.4 h, the Vd is 9.7 L/kg, the clearance is 2.8 mL/min/kg and the half-life was 78.9 h. For the same molecule, the unbound share (fraction unbound) is 0.01.
For `Cn1cc(NC(=O)Nc2cc(C(=O)Nc3cc(C(=O)Nc4ccc5cc(S(=O)(=O)O)cc(S(=O)(=O)O)c5c4)n(C)c3)n(C)c2)cc1C(=O)Nc1cc(C(=O)Nc2ccc3cc(S(=O)(=O)O)cc(S(=O)(=O)O)c3c2)n(C)c1`, the MRT was 960 h, the Vd is 0.27 L/kg, the clearance is 0.0047 mL/min/kg and the half-life was 730 h.
In the case of `CC(=O)N(CC[C@@](CCN1CCCCC1)(C(N)=O)c1ccccc1Cl)C(C)C`, the MRT was 7.9 h, the volume of distribution (Vd) was 2.6 L/kg, the clearance is 5.43 mL/min/kg and the half-life is 12 h.
As for `NS(=O)(=O)c1cc(C(=O)O)cc(N2CCCC2)c1Oc1ccccc1`, the mean residence time MRT is 0.91 h, the Vd is 0.17 L/kg, the clearance is 3.1 mL/min/kg and the half-life was 1.3 h. Moreover, the fraction unbound is 0.058.
Consider `CN(C)c1cc(CNCC(C)(C)C)c(O)c2c1C[C@H]1C[C@H]3[C@H](N(C)C)C(O)=C(C(N)=O)C(=O)[C@@]3(O)C(O)=C1C2=O`, for which the MRT was 19.2 h, the Vd is 2.7 L/kg, the clearance was 2.34 mL/min/kg and the half-life is 15 h.
Consider `CCC(=O)O[C@](Cc1ccccc1)(c1ccccc1)[C@H](C)CN(C)C`, for which the MRT was 13 h, the Vd is 12 L/kg, the clearance is 15 mL/min/kg and the half-life was 18 h. In addition, the fraction unbound is 0.24.
Take `CN1C2CCC1CC(=C1c3ccccc3CSc3ccccc31)C2`: the MRT is 39.5 h, the Vd was 11.8 L/kg, the clearance was 4.98 mL/min/kg and the half-life is 29.8 h.
`CCCn1c(=O)[nH]c(=O)c2nc[nH]c21`: the MRT was 2.6 h, the Vd was 0.63 L/kg, the clearance was 4 mL/min/kg and the half-life was 1.8 h. In addition, the fraction unbound was 0.55.
For the molecule `O=C(O)c1ccc(-n2nc(-c3ccccc3O)nc2-c2ccccc2O)cc1`, the mean residence time MRT is 4.07 h, the Vd was 0.2 L/kg, the clearance was 0.84 mL/min/kg and the half-life is 4.05 h. Further, the fraction unbound is 0.004.
`C=CCNc1c(O)cc2c(O)c1C=C(C)C[C@H](OC)[C@H](O)[C@@H](C)/C=C(\C)[C@H](OC(N)=O)[C@@H](OC)C=CC=C(C)C(=O)N2`: the MRT is 3.27 h, the Vd was 2 L/kg, the clearance is 10.2 mL/min/kg and the half-life was 3 h.
Regarding `Cc1onc(-c2ccccc2)c1-c1ccc(S(N)(=O)=O)cc1`, the MRT was 9.4 h, the Vd is 0.75 L/kg, the clearance is 1.4 mL/min/kg and the half-life was 7.4 h. Moreover, the fraction unbound is 0.02.
In the case of `Nc1nc2[nH]cc(CCc3ccc(C(=O)NC(CCC(=O)O)C(=O)O)cc3)c2c(=O)[nH]1` (stereo not drawn), the MRT is 1.92 h, the Vd was 0.15 L/kg, the clearance is 1.3 mL/min/kg and the half-life was 1.85 h.
As for `NC(=O)c1cccc(N)c1`, the MRT is 4 h, the Vd is 1.9 L/kg, the clearance is 7.9 mL/min/kg and the half-life is 5 h.
As to `CCCCCCCCCC=CCCC(=O)N=CC(=O)N[C@@H]1[C@@H](O)[C@@H](O)[C@@H](Nc2[nH]cnc3ncnc2-3)O[C@H]1[C@@H](O)CO`, the MRT was 1.1 h, the volume of distribution (Vd) is 0.17 L/kg, the clearance was 2.7 mL/min/kg and the half-life was 1.3 h.
`CC(C)(C)S(=O)(=O)CC(Cc1ccccc1)C(=O)NC(Cc1c[nH]cn1)C(=O)N[C@@H](CC1CCCCC1)[C@@H](O)C(O)C1CC1` (stereo partly drawn): the MRT is 1.1 h, the distribution volume (Vd) is 0.77 L/kg, the clearance is 11.6 mL/min/kg and the half-life was 5.2 h. Also, the fraction unbound was 0.0558.
With `O=C(N[C@H](CO)[C@H](O)c1ccc([N+](=O)[O-])cc1)C(Cl)Cl`, the MRT was 6.5 h, the Vd is 0.94 L/kg, the clearance is 2.4 mL/min/kg and the half-life is 4.6 h.
Regarding `CCCc1c2oc(C(=O)O)cc(=O)c2cc2c(=O)cc(C(=O)O)n(CC)c12`, the mean residence time MRT is 0.7 h, the Vd is 0.43 L/kg, the clearance was 10.2 mL/min/kg and the half-life was 0.9 h. Besides, the fraction unbound is 0.11.
